Experimental data: patent publication US7595176B2, “Methods and reagents for quantitative analysis of Dehalococcoides species” (Georgia Tech Research Corporation, priority 2003, dated 2009)

Experiments:
[1] = 25° C.; Gossett 1987; cited from earlier work
[2] = system: VC-dechlorinating Dehalococcoides population in the Bachman culture; experiment: Reductive dechlorination kinetics of chloroethenes in the VC-dechlorinating Bachman enrichment culture; format: cell-based, Dehalococcoides sp.; settings: for Dechlorination by the culture after prolonged enrichment with VC: chloroethene added alone, without DCEs or VC; for Ks (half-velocity coefficient) / kX (maximum aqueous dechlorination rate): pyruvate-fed cultures, Monod equation, nonlinear regression
Procedure: All experiments were carried out in serum bottles (160 ml nominal volume) containing 100 ml (final volume) of growth medium, which were sealed with black butyl rubber septa (Wheaton, Ochelata, Okla.). Anoxic, bicarbonate-buffered mineral salts medium was prepared, and was amended with pyruvate (10 mM), lactate (5 mM or 10 mM), acetate plus formate (5 mM each), or acetate (5 mM) as substrates. Löffler et al., Appl. Environ. Microbiol., 1997, 63:4982-4985. Unless indicated otherwise, H2 was only added to acetate-fed cultures at a partial pressure of 9 kPa. Routinely, L-cysteine and Na2S×9 H2O (0.2 mM each) were used to chemically reduce the medium. DL-dithiothreitol (DTT) was tested at 0.5 mM concentration. Titanium(III) (0.5 mM) was added from a filter-sterilized citrate solution after the medium had been autoclaved. Löffler et al., Appl. Environ. Microbial., 1996, 62:3809-3813; Zehnder et al., Science, 1976, 194:1165-1166. Gaseous VC was added as a single dose of 1 to 6 ml per serum bottle resulting in initial aqueous concentrations ranging from 0.27 to 1.6 mM. Other chloroethenes were added using Hamilton glass syringes (Hamilton, Reno, Nev.) to initial aqueous concentrations ranging from 0.2 to 0.5 mM. Biogenic cis-DCE was produced from PCE (0.5 mM) using a culture of ‘Desulfuromonas michiganensis’.
After complete dechlorination to cis-DCE (0.5 mM), the cultures were amended with pyruvate and inoculated with the VC-dechlorinating culture. New cultures were routinely seeded with a 2% (vol/vol) inoculum using plastic syringes. To minimize the contact of the inoculum with air present in the plastic of the syringes during transfers, the syringes were reduced with a sterile 0.5 mM aqueous sulfide solution for 5-10 min prior to transfers. Gaseous substrates were added with plastic syringes that had been previously flushed with H2- and O2-free N2.
All experiments were set up in triplicates, and all results were verified by at least one additional independent experiment. Culture bottles were incubated upside down at room temperature (22-25° C.) without agitation in the dark, unless indicated otherwise. Duplicate controls (no inoculum or autoclaved inoculum) accompanied each experiment. Ethene formation strictly depended on a viable inoculum, and loss of VC through the septum was negligible.
Chloroethenes were measured with a Hewlett Packard model 6890 gas chromatograph equipped with a HP-624 column (60 m length, 0.32 mm diameter, 1.8 μm film thickness) and a flame ionization detector (FID). Headspace samples of 100 μl were withdrawn with gas-tight 250 μl Hamilton glass syringes with Teflon-lined valves (model # 1725), and manually injected into a split injector operated at a split ratio of 2:1. All syringes were flushed with H2- and O2-free N2 gas to prevent contamination of the cultures with these gases. A temperature program that allowed the simultaneous analysis of all chloroethenes and ethene was described previously. He et al., Environ. Sci. Technol., 2002, 36: 3945-3952. Standards were prepared as described and 7-point calibration curves were established for all chloroethenes and ethene at room temperature. Gossett, Environ. Sci. Technol., 1987, 21: 202-208. The instrument detection limits for VC and ethene were 7.3 and 8.6 μM, respectively. For quantification of VC and ethene at different temperatures, concentrations of each compound were determined from 3-point calibration curves.
[formula] was used to describe the substrate reaction kinetics, where S is the chloroethene concentration, KS is the half-saturation coefficient, k is the maximum chloroethene dechlorination rate per unit of biomass, and X is the dechlorinating biomass concentration. It was assumed that Xlag was zero during the lag period due to the small inoculum transferred, and X remained constant during the phase of active dechlorination due to slow growth of the dechlorinating population(s). […]

Structure (SMILES)	Dimensionless Henry coefficient [1]	Ks (half-velocity coefficient) [2]	kX (maximum aqueous dechlorination rate) [2]	also measured
C=C(Cl)Cl [1,1-DCE]	1.069	–	–	–
ClC(Cl)=C(Cl)Cl [PCE, Perchloroethene]	–	–	–	Dechlorination by the culture after prolonged enrichment with VC [2]: failed to dechlorinate
ClC=C(Cl)Cl [TCE, trichloroethene]	–	–	–	Dechlorination by the culture after prolonged enrichment with VC [2]: failed to dechlorinate
C=CCl [VC, vinyl chloride]	1.137	5.8 ± 0.4 µM	54.4 ± 3.5 μMday^−1	VC dechlorination rate ([2]; acetate-enriched cultures): 2.4 ± 0.5 µmol/L/day
CC1(C)S[C@@H]2[C@H](NC(=O)[C@H](N)c3ccccc3)C(=O)N2[C@H]1C(=O)O [ampicillin, reference compound]	–	–	–	Effect on dechlorination rates of DCEs and VC to ethene ([2]; compared with cultures without the antibiotic): about one third less
Cl/C=C\Cl [cis-DCE]	0.167	8.9 ± 0.4 µM	23.1 ± 0.8 μMday^−1	–
Cl/C=C/Cl [trans-DCE]	0.384	8.5 ± 0.3 µM	26.2 ± 0.7 μMday^−1	–
